Results from patent US11998595B2, “Telomerase polypeptide vaccine for treating cancer” (Ultimovacs AS, priority 2010, dated 2024).

System: T cells (patient PBMCs)
Test: T-cell proliferation assay (3H-thymidine) of patient PBMC/T cells with hTERT peptides or transfected DC
Assay type: cell-based, human
Protocol: FIG. 1 is a bar graph summarising hTERT T-cell responses detected in pancreas cancer patient vaccinated with DC transfected with hTERT mRNA. In samples from various time points throughout a vaccination schedule, T-cell responses against 24 overlapping hTERT 15-mer peptides were detected. Proliferation in response to peptide-loaded PBMC was measured by ^3H-thymidine incorporation. A stimulation index of >2 is considered an immune response.
Peripheral blood mononuclear cells (PBMCs) were obtained prior to the four standard vaccinations, after 5 weeks and after 12 weeks. PBMCs were also obtained before each monthly booster vaccination. The PBMCs were isolated and frozen as previously described (Kyte et al, 2005). Thawed PBMCs were stimulated once in vitro with tDCs (not with mockDCs) and cultured and then tested in T cell proliferation assays (^3H Thymidine) as previously described (Kyte et al 2006). The T cells were tested in triplicates. Irradiated tDCs and mock-transfected DC controls (mockDCs) were used or PBMC with or without hTERT peptide as APCs. Negative controls with T cells only were included.
PBMCs from various time points were stimulated with an overlapping hTERT 15-mer peptide library or a 30-mer hTERT peptide, all from ProImmune and then tested in proliferation assays as above using irradiated PBMCs as APCs as described in (Bernhardt et al 2006).
T-cell responses to a hTERT peptide library (including the polypeptides from Table 1) were determined for T-cells from 5 patients in addition to the patients reported in Examples 1 and 2. The methods were the same as previously described in Example 1 or in Bernhardt et al 2006. In brief, PBMCs from various time points during vaccination were stimulated with the overlapping hTERT peptide library prior to testing for specific T-cell responses in proliferation assays.
The proliferative T-cell responses of each patient to a series of peptides were then determined as explained in Example 1. The results are tabulated in Table 5 and are shown graphically in FIG. 14 in which the peptide designations are referenced in Table 6 (the results for peptides 726 and GV1001 are shown only for comparison).
Four patients who were clinical non-responders following a lung cancer diagnosis and a GV1001 (SEQ ID NO. 10) peptide vaccination were studied. These patients were all stage IV lung cancer patients vaccinated with GV1001. […] The proliferative T-cell responses of each patient to a series of peptides were determined in the same manner as in Example 1, at one time point. The peak response of each patient during the study period to peptide GV1001 is also shown which confirms that each patient responded immunologically to GV1001 vaccination.
Six patients who were clinical non-responders following a melanoma cancer diagnosis and a GV1001 peptide (SEQ ID NO. 10) vaccination were studied. These patients were all stage IV melanoma patients and included in the same GV1001 vaccination trial as melanoma patients P7 and P8 who were long term survivors (see Example 6). […] Five of the patients also experienced progressive disease and one patient, designated Melanoma P3, experienced some stabilization of the disease but still had short survival. The proliferative T-cell responses of each patient to a series of peptides were determined in the same manner as in Example 1, at one time point. The peak response of each patient during the study period to peptide GV1001 is also shown which confirms that each patient responded immunologically to GV1001 vaccination.

## EARPALLTSRLRFIPK (listed as Homo sapiens) [GV1001]
All patients of Example 6
  SI of response: > 2
All patients of Examples 1 to 8
  immunological response of patients: All patients responded immunologically
Patient Colon ca P1, GV1001-vaccinated, clinical responder
  proliferative T-cell response (SI): 105.1
Patient Lung ca P1, GV1001-vaccinated, clinical non-responder, one time point
  proliferative T-cell response (SI): 0.9
Patient Lung ca P1, peak during study period
  Peak response GV1001: 60.95
Patient Lung ca P2, GV1001-vaccinated, clinical non-responder, one time point
  proliferative T-cell response (SI): 122.8
Patient Lung ca P2, peak during study period
  Peak response GV1001: 122.8
Patient Lung ca P3, GV1001-vaccinated, clinical non-responder, one time point
  proliferative T-cell response (SI): 1.4
Patient Lung ca P3, peak during study period
  Peak response GV1001: 161.6
Patient Lung ca P4, GV1001-vaccinated, clinical non-responder, one time point
  proliferative T-cell response (SI): 1.2
Patient Lung ca P4, peak during study period
  Peak response GV1001: 13.3
Patient Lung ca P5, GV1001-vaccinated, clinical responder
  proliferative T-cell response (SI): 20.1
Patient Lung ca P6, DC/hTERT mRNA-vaccinated, clinical responder, high background
  proliferative T-cell response (SI): 7.1
Patient Melanoma P1, GV1001-vaccinated, clinical non-responder, one time point
  proliferative T-cell response (SI): 1.4
Patient Melanoma P1, peak during study period
  Peak response GV1001: 26.0
Patient Melanoma P2, GV1001-vaccinated, clinical non-responder, one time point
  proliferative T-cell response (SI): 0.9
Patient Melanoma P2, peak during study period
  Peak response GV1001: 38.7
Patient Melanoma P3, GV1001-vaccinated, clinical non-responder, one time point
  proliferative T-cell response (SI): 1.8
Patient Melanoma P3, peak during study period
  Peak response GV1001: 3.7
Patient Melanoma P4, GV1001-vaccinated, clinical non-responder, one time point
  proliferative T-cell response (SI): 1.2
Patient Melanoma P4, peak during study period
  Peak response GV1001: 10.7
Patient Melanoma P5, GV1001-vaccinated, clinical non-responder, one time point
  proliferative T-cell response (SI): 25.2
Patient Melanoma P5, peak during study period
  Peak response GV1001: 35.4
Patient Melanoma P6, GV1001-vaccinated, clinical non-responder, one time point
  proliferative T-cell response (SI): 21.4
Patient Melanoma P6, peak during study period
  Peak response GV1001: 122.0
Patient Melanoma P7, GV1001-vaccinated, clinical responder
  proliferative T-cell response (SI): 76.5
Patient Melanoma P8, GV1001-vaccinated, clinical responder
  proliferative T-cell response (SI): 13.2
Patient Melanoma P9, non-vaccinated, spontaneous response
  proliferative T-cell response (SI): 1.7
Patient Pancreas ca P1, DC/hTERT mRNA-vaccinated, clinical responder, high background
  proliferative T-cell response (SI): 2.2
